# Source: patent US7598399B2, “Methods for synthesis of 3-amino-1-arylpropyl indoles” (Roche Palo Alto LLC, priority 2005, dated 2009)
smiles,measurement,value
CNCC[C@@H](c1ccccc1)c1c[nH]c2cccc(OC)c12 [[(S)-3-(4-Methoxy-1H-indol-3-yl)-3-phenyl-propyl]-methyl-amine],melting point,134 to 137 °C
